Experimental data: paper PMC7392643, “Antibiotic fidaxomicin is an RdRp inhibitor as a potential new therapeutic agent against Zika virus” (BMC Medicine, 2020)

Test system: DENV2 (NGC)
Experiment: In vitro anti-DENV assay, RT-qPCR
Type: cell-based, Dengue-2 virus
Conditions: Dengue virus

Work on `CCc1c(Cl)c(O)c(Cl)c(O)c1C(=O)O[C@H]1[C@H](O)[C@H](OC)[C@H](OC/C2=C\C=C\C[C@H](O)/C(C)=C/[C@H](CC)[C@@H](O[C@@H]3OC(C)(C)[C@@H](OC(=O)C(C)C)[C@H](O)[C@@H]3O)/C(C)=C/C(C)=C/C[C@@H]([C@@H](C)O)OC2=O)O[C@@H]1C` [Fidaxomicin] yielded an EC50 (DENV2, A549 cells) of 9.9 ± 2.5 µM, an EC90 (DENV2, A549 cells) of 18 ± 4.2 µM and an EC50 (DENV2, SNB-19, SNB19 cells) of 6.8 ± 1.5 µM. The EC90 (DENV2, SNB-19, SNB19 cells) was 10.6 ± 2.1 µM.
